Reference: US5472959A, “Carboxyalkyl derivatives useful as inhibitors of enkephalinase and ace” (Merrell Dow Pharmaceuticals Inc., priority 1994, dated 1995)

Legend:
Enkephalinase = target: T1, Enkephalinase (Rattus norvegicus, UniProt P07861); assay: Enkephalinase inhibition, fluorometric assay with dansyl-D-AlaGly(p-nitro)PheGly; type: biochemical; settings: substrate of enkephalinase, 50 mM HEPES pH 7.4, 25° C.
T1 construct: Enkephalinase is partially purified from rat kidney; from tissue; host or cells: rat kidney (microvilli fraction), further purified by Mono Q anion exchange
T1 sequence (P07861 1-750): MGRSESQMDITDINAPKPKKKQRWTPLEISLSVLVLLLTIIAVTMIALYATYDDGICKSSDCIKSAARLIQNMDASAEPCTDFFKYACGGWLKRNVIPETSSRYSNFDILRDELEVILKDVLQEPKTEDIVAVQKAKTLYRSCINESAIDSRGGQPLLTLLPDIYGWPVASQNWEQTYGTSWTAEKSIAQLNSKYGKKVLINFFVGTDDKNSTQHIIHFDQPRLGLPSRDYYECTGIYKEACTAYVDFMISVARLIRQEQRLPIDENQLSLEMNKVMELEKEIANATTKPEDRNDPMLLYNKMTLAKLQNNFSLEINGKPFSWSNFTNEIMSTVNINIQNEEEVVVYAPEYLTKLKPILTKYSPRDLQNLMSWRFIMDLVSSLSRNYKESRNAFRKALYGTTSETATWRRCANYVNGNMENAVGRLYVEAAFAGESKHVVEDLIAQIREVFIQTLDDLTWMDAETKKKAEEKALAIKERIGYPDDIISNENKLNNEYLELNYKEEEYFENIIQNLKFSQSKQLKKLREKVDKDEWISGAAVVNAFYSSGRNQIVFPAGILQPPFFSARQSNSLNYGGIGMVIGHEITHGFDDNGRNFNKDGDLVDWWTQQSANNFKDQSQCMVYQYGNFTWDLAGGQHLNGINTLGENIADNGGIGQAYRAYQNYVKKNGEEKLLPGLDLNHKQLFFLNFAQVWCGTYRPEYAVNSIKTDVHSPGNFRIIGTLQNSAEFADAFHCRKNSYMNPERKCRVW
Source text: Enkephalinase is partially purified from rat kidney. The enzyme is extracted from the microvilli fraction by using Triton X-100 according to the method of Malfroy and Schwartz [Biol. Chem. 259, 14365-14370 (1984)] or by using a proteolytic treatment according to the method of Almenoff and Orlowski [Biochem. 22, 590-599 (1983)]. The enzyme is further purified by anion exchange chromatography (Mono Q™ column, Pharmacia) using a Pharmacia FPLC system. The enzyme activity may be measured by the fluorometric methods of Florentin et al. [
Anal. Biochem. 141, 62-69 (1984)] or of Almenoff and Orlowski [Neurochemistry 42, 151-157 (1984)]. The enzyme is assayed in 50 mM HEPES buffer (pH 7.4) in a 3.0 mL reaction volume containing 12 μM of the substrate dansyl-D-AlaGly(p-nitro)PheGly (Km =40μM) at 25° C. The substrate (and inhibitor) is added from a concentrated stock solution in DMSO (up to 0.1 mL DMSO final volume). The enzyme in a small volume (approximately 0.1 μg of FPLC purified protein) is added to initiate the reaction and the rate of fluorecense increase is recorded continuously using a fluorometer (excitation at 339 nm, emission at 562 nm).

[1] = Needleman, Hypertension 7, 469 (1985), cited from earlier work

| Km (Enkephalinase) [µM] | Substance | binding affinity, lower end of range ([1]; affinities ranging from about) [pM] | binding affinity, upper end of range ([1]; affinities ranging to about) [nM] |
| --- | --- | --- | --- |
| 40 | dansyl-D-AlaGly(p-nitro)PheGly | – | – |
| – | ANP: family of naturally-occurring peptides which are involved in the homeostatic regulation of blood pressure, as well as sodium and water levels | ≥ 50 | ≤ 500 |
